Measured values taken from patent publication US20100041089A1, “IMPROVED METHOD FOR DETECTING CHEMICAL […]” (priority 2006, published 2010).

System: yeast genes (expressed mRNA)
Test: DNA chip measurement of expressed mRNA of yeast genes after culture with a toxic chemical substance
Assay type: cell-based, Saccharomyces cerevisiae S288C
Description: Yeast (Saccharomyces cerevisiae S288C (a SUC2mal mel gap2 CUP1)) were cultured at 25° C. on YPD medium (yeast extract 1%, polypeptone 2%, glucose 2%). One of toxic chemical substances was added to the cell at logarithmic growth phase, and the cell was further cultured for two hours. Cell was cultured without any chemical substance in the same condition, and was used as a control. Concentrations of the chemical substances were defined to inhibit the growth of the yeast but not lead to death.
After the completion of cultivation, the culture was centrifuged to collect the cells. To the cells, sodium acetate buffer (50 mM sodium acetate, 10 mM EDTA, 1% SDS) was added, and the mixture was shaken at 65° C. for five minutes, followed by returning to room temperature, and obtaining the supernatant, which procedure was repeated two times. To the supernatant, ½ amount of a solution of phenol/chloroform (1:1) was added, and the mixture was centrifuged to give a supernatant, an equal amount of chloroform was added, and the mixture was centrifuged to give a supernatant. To the supernatant, an equal amount of isopropanol containing 0.3 M sodium acetate was added, and the mixture was allowed to stand at room temperature for 30 minutes, after which the mixture was centrifuged to give sediment of the whole RNAs. Seventy % ethanol was added to the sediment, and the mixture was again centrifuged to give sediment, which was then dried and dissolved in water. mRNA was isolated from the whole RNAs as followings. In view of the fact that a poly A chain is attached to the 3′ terminus of mRNA, a polynucleotide having a poly T structure which was immobilized on the surface of latex beads was used to trap the mRNA, and then the mRNA was washed and eluted with spine column (Oligotex-dT30<Super>mRNA Purification Kit, Takara). Reverse transcription of the mRNA was conducted with a reverse transcriptase (Super Script II Reverse Transcriptase; catalogue No. 18064-014, GibcoBRL) using fluorescence-labeled nucleotides to give cDNAs that were introduced with Cy3-dUTP or Cy5-dUTP during the reverse transcription.
The labeled cDNAs were dissolved in TE buffer (10 mM Tris-HCl/1 mM EDTA, pH 8.0), and the solution was dropped on the DNA chip containing the whole genes of yeast (DNA Chip Research Inc. Japan) so that the cDNAs were hybridized on the DNA chip at 65° C. for over 12 hours. The fluoresces intensity of the DNA chip was read with a scanner, and the ratio relative to the fluorescence intensity resulting from the absence of chemical substance was estimated as the following, which is shown in Tables 1 to 9.
In the Tables, “Intensity” indicated in the rightmost column is a value of the level of expressed mRNA of each gene in control cells as divided by the average level of the expressions of the whole genes. A gene of which mRNA level is lower in control, and is higher in cases of addition of chemical substance, is especially useful in the detection of toxic substances.
Here, when a ratio of an amount of mRNA expressed in the presence of the chemical substance to an amount of mRNA expressed in the absence of the chemical substance is two or more, then it is considered significant.

Compound: Oc1cc(Cl)c(Cl)cc1Cl [(6), 2,4,5-Trichlorophenol]
- The level of expressed mRNA in the presence of chemical substance/The level of expressed mRNA in the absence of chemical substance (yeast gene YFL032W, cultured two hours with substance): 0.6
- The level of expressed mRNA in the presence of chemical substance/The level of expressed mRNA in the absence of chemical substance (yeast gene YGL037C, cultured two hours with substance): 1.3
- The level of expressed mRNA in the presence of chemical substance/The level of expressed mRNA in the absence of chemical substance (yeast gene YGL047W, cultured two hours with substance): 1.5
- The level of expressed mRNA in the presence of chemical substance/The level of expressed mRNA in the absence of chemical substance (yeast gene YGL053W, cultured two hours with substance): 2.7
- The level of expressed mRNA in the presence of chemical substance/The level of expressed mRNA in the absence of chemical substance (yeast gene YGL117W, cultured two hours with substance): 0.9
- The level of expressed mRNA in the presence of chemical substance/The level of expressed mRNA in the absence of chemical substance (yeast gene YGL121C, cultured two hours with substance): 9.8
- The level of expressed mRNA in the presence of chemical substance/The level of expressed mRNA in the absence of chemical substance (yeast gene YGL199C, cultured two hours with substance): 0.7
- The level of expressed mRNA in the presence of chemical substance/The level of expressed mRNA in the absence of chemical substance (yeast gene YGR043C): 16.3
- The level of expressed mRNA in the presence of chemical substance/The level of expressed mRNA in the absence of chemical substance (yeast gene YGR043C, cultured for two hours with substance): 16.3
- The level of expressed mRNA in the presence of chemical substance/The level of expressed mRNA in the absence of chemical substance (yeast gene YGR101W, cultured two hours with substance): 0.9
- The level of expressed mRNA in the presence of chemical substance/The level of expressed mRNA in the absence of chemical substance (yeast gene YGR108W): 0.1
- The level of expressed mRNA in the presence of chemical substance/The level of expressed mRNA in the absence of chemical substance (yeast gene YGR110W, cultured two hours with substance): 0.9
- The level of expressed mRNA in the presence of chemical substance/The level of expressed mRNA in the absence of chemical substance (yeast gene YGR130C, cultured two hours with substance): 0.9
- The level of expressed mRNA in the presence of chemical substance/The level of expressed mRNA in the absence of chemical substance (yeast gene YGR154C, cultured two hours with substance): 1.4
- The level of expressed mRNA in the presence of chemical substance/The level of expressed mRNA in the absence of chemical substance (yeast gene YGR221C, cultured two hours with substance): 3.0
- The level of expressed mRNA in the presence of chemical substance/The level of expressed mRNA in the absence of chemical substance (yeast gene YHL040C (detoxification protein gene)): 7.3
- The level of expressed mRNA in the presence of chemical substance/The level of expressed mRNA in the absence of chemical substance (yeast gene YHL040C (transport facilitation protein gene)): 7.3
- The level of expressed mRNA in the presence of chemical substance/The level of expressed mRNA in the absence of chemical substance (yeast gene YHR029C, cultured two hours with substance): 2.7
- The level of expressed mRNA in the presence of chemical substance/The level of expressed mRNA in the absence of chemical substance (yeast gene YHR138C, cultured two hours with substance): 3.8
- The level of expressed mRNA in the presence of chemical substance/The level of expressed mRNA in the absence of chemical substance (yeast gene YHR199C, cultured two hours with substance): 1.1
- The level of expressed mRNA in the presence of chemical substance/The level of expressed mRNA in the absence of chemical substance (yeast gene YIL023C, cultured two hours with substance): 0.9
- The level of expressed mRNA in the presence of chemical substance/The level of expressed mRNA in the absence of chemical substance (yeast gene YIL024C, cultured two hours with substance): 1.0
- The level of expressed mRNA in the presence of chemical substance/The level of expressed mRNA in the absence of chemical substance (yeast gene YIL041W, cultured two hours with substance): 1.0
- The level of expressed mRNA in the presence of chemical substance/The level of expressed mRNA in the absence of chemical substance (yeast gene YIL087C, cultured two hours with substance): 4.1
- The level of expressed mRNA in the presence of chemical substance/The level of expressed mRNA in the absence of chemical substance (yeast gene YIL117C, cultured two hours with substance): 1.2
- The level of expressed mRNA in the presence of chemical substance/The level of expressed mRNA in the absence of chemical substance (yeast gene YJL057C, cultured two hours with substance): 1.4
- The level of expressed mRNA in the presence of chemical substance/The level of expressed mRNA in the absence of chemical substance (yeast gene YJL066C, cultured two hours with substance): 1.4
- The level of expressed mRNA in the presence of chemical substance/The level of expressed mRNA in the absence of chemical substance (yeast gene YJL082W, cultured two hours with substance): 0.2
- The level of expressed mRNA in the presence of chemical substance/The level of expressed mRNA in the absence of chemical substance (yeast gene YJL108C, cultured two hours with substance): 0.6
- The level of expressed mRNA in the presence of chemical substance/The level of expressed mRNA in the absence of chemical substance (yeast gene YJL149W, cultured two hours with substance): 0.7
- The level of expressed mRNA in the presence of chemical substance/The level of expressed mRNA in the absence of chemical substance (yeast gene YJL151C, cultured two hours with substance): 2.2
- The level of expressed mRNA in the presence of chemical substance/The level of expressed mRNA in the absence of chemical substance (yeast gene YJL152W, cultured two hours with substance): 1.5
- The level of expressed mRNA in the presence of chemical substance/The level of expressed mRNA in the absence of chemical substance (yeast gene YJL161W, cultured two hours with substance): 8.0
- The level of expressed mRNA in the presence of chemical substance/The level of expressed mRNA in the absence of chemical substance (yeast gene YJL171C, cultured two hours with substance): 2.7
- The level of expressed mRNA in the presence of chemical substance/The level of expressed mRNA in the absence of chemical substance (yeast gene YJL186W, cultured two hours with substance): 0.7
- The level of expressed mRNA in the presence of chemical substance/The level of expressed mRNA in the absence of chemical substance (yeast gene YJR008W, cultured two hours with substance): 2.2
